Test results reported in ChEMBL document CHEMBL5505958, “Optimization of sequence and chiral content enhances therapeutic potential of tilapia piscidin peptides” (Eur J Med Chem, 2024).
In brackets after ≈: the same amount, converted by molar mass. Activity calls are given as the source filed them. No cut-off for these calls is given here.

Experiments:
[1] = test system: Staphylococcus haemolyticus; assay: Antibacterial activity against Staphylococcus haemolyticus 15237 assessed as inhibition of bacterial growth incubated for 16 to 20 hrs; format: functional; conditions: time 16-20 hrs
Klebsiella pneumoniae [2] = assay: Antibacterial activity against Klebsiella pneumoniae BAA 2473 assessed as inhibition of bacterial growth in presence of 1 microg/ml of pepsin (reference value: 1.56 to 3.13 microM); format: functional
Klebsiella pneumoniae [3] = assay: Antibacterial activity against Klebsiella pneumoniae BAA 2473 assessed as inhibition of bacterial growth in presence of 10 microg/ml of chymotrypsin (reference value: 1.56 to 3.13 microM); format: functional
[4] = test system: Staphylococcus haemolyticus; assay: Bactericidal activity against Staphylococcus haemolyticus 15237 assessed as inhibition of bacterial growth incubated for 16 to 20 hrs; format: functional; conditions: time 16-20 hrs
Klebsiella pneumoniae [5] = assay: Antibacterial activity against Klebsiella pneumoniae BAA 2473 assessed as bacterial eradication measured at 10 hrs; format: functional, organism-based
Klebsiella pneumoniae [6] = assay: Bactericidal activity against Klebsiella pneumoniae TL 297 assessed as inhibition of bacterial growth incubated for 16 to 20 hrs in presence of human serum; format: functional; conditions: time 16-20 hrs
Klebsiella pneumoniae [7] = assay: Antibacterial activity against Klebsiella pneumoniae BAA 2473 assessed as inhibition of bacterial growth in presence of 10 microg/ml of pepsin (reference value: 1.56 to 3.13 microM); format: functional
Acinetobacter baumannii = assay: Bactericidal activity against Acinetobacter baumannii 10591 assessed as inhibition of bacterial growth incubated for 16 to 20 hrs in presence of human serum; format: functional; conditions: time 16-20 hrs
Vibrio vulnificus [8] = assay: Bactericidal activity against Vibrio vulnificus 204 assessed as inhibition of bacterial growth incubated for 16 to 20 hrs; format: functional; conditions: time 16-20 hrs
Klebsiella pneumoniae [9] = assay: Bactericidal activity against Klebsiella pneumoniae BAA 2473 assessed as inhibition of bacterial growth in presence of 1 microg/ml of proteinase K (reference value: 1.56 to 3.13 microM); format: functional
Salmonella typhimurium [10] = assay: Bactericidal activity against Salmonella typhimurium DT104 assessed as inhibition of bacterial growth incubated for 16 to 20 hrs in presence of human serum; format: functional, Salmonella enterica subsp. enterica serovar Typhimurium; conditions: Salmonella enterica, time 16-20 hrs
Vibrio vulnificus [11] = assay: Antibacterial activity against Vibrio vulnificus 204 assessed as inhibition of bacterial growth incubated for 16 to 20 hrs in presence of human serum; format: functional; conditions: time 16-20 hrs
Klebsiella pneumoniae [12] = assay: Bactericidal activity against Klebsiella pneumoniae BAA 2473 assessed as inhibition of bacterial growth in presence of 1 microg/ml of pepsin (reference value: 1.56 to 3.13 microM); format: functional
Klebsiella pneumoniae [13] = assay: Antibacterial activity against Klebsiella pneumoniae BAA 2473 assessed as inhibition of bacterial growth in presence of 0.1 microg/ml of trypsin (reference value: 1.56 to 3.13 microM); format: functional
Klebsiella pneumoniae [14] = assay: Bactericidal activity against Klebsiella pneumoniae BAA 2473 assessed as inhibition of bacterial growth in presence of 1 microg/ml of trypsin (reference value: 1.56 to 3.13 microM); format: functional
Klebsiella pneumoniae [15] = assay: Antibacterial activity against Klebsiella pneumoniae TL 297 assessed as inhibition of bacterial growth incubated for 16 to 20 hrs in presence of human serum; format: functional; conditions: time 16-20 hrs
Salmonella typhimurium [16] = assay: Antibacterial activity against Salmonella typhimurium DT104 assessed as inhibition of bacterial growth incubated for 16 to 20 hrs; format: functional, Salmonella enterica subsp. enterica serovar Typhimurium; conditions: Salmonella enterica, time 16-20 hrs
Vibrio vulnificus [17] = assay: Bactericidal activity against Vibrio vulnificus 204 assessed as inhibition of bacterial growth incubated for 16 to 20 hrs in presence of human serum; format: functional; conditions: time 16-20 hrs
Klebsiella aerogenes [18] = assay: Bactericidal activity against Enterobacter aerogenes 15630 assessed as inhibition of bacterial growth incubated for 16 to 20 hrs; format: functional; conditions: time 16-20 hrs
Escherichia coli [19] = assay: Antibacterial activity against Escherichia coli 10675 assessed as inhibition of bacterial growth incubated for 16 to 20 hrs; format: functional; conditions: time 16-20 hrs
Salmonella enterica [20] = assay: Antibacterial activity against Salmonella enterica 15455 assessed as inhibition of bacterial growth incubated for 16 to 20 hrs in presence of human serum; format: functional; conditions: time 16-20 hrs
Staphylococcus aureus [21] = assay: Bactericidal activity against Staphylococcus aureus 10780 assessed as inhibition of bacterial growth incubated for 16 to 20 hrs in presence of human serum; format: functional; conditions: time 16-20 hrs
Lipopolysaccharide (LPS) = assay: Displacement of BODIPY-TR-cadaverine from Klebsiella pneumoniae BAA 2473 lipopolysaccharide (LPS) assessed as increase in fluorescence intensity at 1.56 uM by fluorescence spectrophotometric analysis; format: subcellular
Rhizopus arrhizus = assay: Antifungal activity against Rhizopus oryzae 34550 assessed as inhibition of fungal growth incubated for 16 to 20 hrs in presence of human serum; format: functional; conditions: time 16-20 hrs
Yersinia enterocolitica [22] = assay: Bactericidal activity against Yersinia enterocolitica 13999 assessed as inhibition of bacterial growth incubated for 16 to 20 hrs; format: functional; conditions: time 16-20 hrs
Klebsiella pneumoniae [23] = assay: Antibacterial activity against Klebsiella pneumoniae BAA 2473 assessed as inhibition of bacterial growth in presence of 0.1 microg/ml of pepsin (reference value: 1.56 to 3.13 microM); format: functional
Klebsiella oxytoca = assay: Bactericidal activity against Klebsiella oxytoca 13985 assessed as inhibition of bacterial growth incubated for 16 to 20 hrs in presence of human serum; format: functional; conditions: time 16-20 hrs
Escherichia coli [24] = assay: Bactericidal activity against Escherichia coli 10675 assessed as inhibition of bacterial growth incubated for 16 to 20 hrs; format: functional; conditions: time 16-20 hrs
Klebsiella pneumoniae [25] = assay: Antibacterial activity against Klebsiella pneumoniae BAA 2473 assessed as inhibition of bacterial growth in presence of 10 microg/ml of trypsin (reference value: 1.56 to 3.13 microM); format: functional
Salmonella enterica [26] = assay: Bactericidal activity against Salmonella enterica 15455 assessed as inhibition of bacterial growth incubated for 16 to 20 hrs; format: functional; conditions: time 16-20 hrs
Klebsiella pneumoniae [27] = assay: Synergistic antibacterial activity against Klebsiella pneumoniae BAA 2473 assessed as fractional inhibitory concentration index in presence of ciprofloxacin by checkerboard assay; format: functional
Klebsiella pneumoniae [28] = assay: Bactericidal activity against Klebsiella pneumoniae BAA 2473 assessed as inhibition of bacterial growth in presence of 0.1 microg/ml of trypsin (reference value: 1.56 to 3.13 microM); format: functional
Staphylococcus aureus [29] = assay: Antibacterial activity against Staphylococcus aureus 10780 assessed as inhibition of bacterial growth incubated for 16 to 20 hrs in presence of human serum; format: functional; conditions: time 16-20 hrs
Klebsiella aerogenes [30] = assay: Antibacterial activity against Enterobacter aerogenes 15630 assessed as inhibition of bacterial growth incubated for 16 to 20 hrs; format: functional; conditions: time 16-20 hrs
Yersinia enterocolitica [31] = assay: Antibacterial activity against Yersinia enterocolitica 13999 assessed as inhibition of bacterial growth incubated for 16 to 20 hrs; format: functional; conditions: time 16-20 hrs
Klebsiella pneumoniae [32] = assay: Bactericidal activity against Klebsiella pneumoniae BAA 2473 assessed as inhibition of bacterial growth in presence of 10 microg/ml of chymotrypsin (reference value: 1.56 to 3.13 microM); format: functional
Klebsiella pneumoniae [33] = assay: Antibacterial activity against Klebsiella pneumoniae BAA 2473 assessed as ciprofloxacin MIC; format: functional
Enterococcus faecium = assay: Bactericidal activity against Enterococcus faecium 10067 assessed as inhibition of bacterial growth incubated for 16 to 20 hrs in presence of human serum; format: functional; conditions: time 16-20 hrs
Klebsiella pneumoniae [34] = assay: Bactericidal activity against Klebsiella pneumoniae TL 297 assessed as inhibition of bacterial growth incubated for 16 to 20 hrs; format: functional; conditions: time 16-20 hrs
Klebsiella pneumoniae [35] = assay: Antibacterial activity against Klebsiella pneumoniae 10692 assessed as inhibition of bacterial growth incubated for 16 to 20 hrs; format: functional; conditions: time 16-20 hrs
Klebsiella pneumoniae [36] = assay: Antibacterial activity against Klebsiella pneumoniae BAA 2473 assessed as inhibition of bacterial growth incubated for 16 to 20 hrs; format: functional; conditions: time 16-20 hrs

Question: With `CC(C)C[C@H](NC(=O)[C@@H](C)NC(=O)[C@@H](CCCCN)NC(=O)[C@H](CC(C)C)NC(=O)[C@@H](CC(C)C)NC(=O)[C@@H](CCCCN)NC(=O)[C@H](CCCCN)NC(=O)[C@@H](CC(C)C)NC(=O)[C@H](N)Cc1ccccc1)C(=O)N[C@H](Cc1ccccc1)C(=O)N[C@H](CO)C(=O)N[C@@H](C)C(=O)N1CCC[C@@H]1C(=O)N[C@H](CCCCN)C(=O)N[C@@H](C)C(=O)N[C@H](CC(C)C)C(=O)N[C@H](CCCCN)C(=O)N[C@@H](CCCNC(=N)N)C(=O)N[C@H](CC(C)C)C(=O)N[C@H](CC(C)C)C(=O)N[C@@H](CCCNC(=N)N)C(=O)N[C@H](CCCNC(=N)N)C(=O)N[C@H](CCCNC(=N)N)C(=O)N[C@@H](CCCNC(=N)N)C(=O)N[C@@H](CCCNC(=N)N)C(=O)O` as the compound, how does the MIC [1] read?
Answer: Its MIC is 1.56 µM (≈ 4.8 µg/mL).

Question: What about the MIC (Klebsiella pneumoniae [2]) of the same compound?
Answer: Its MIC is 0.78 µM.

Question: What about the MIC (Klebsiella pneumoniae [3]) of the same compound?
Answer: The MIC was 0.78 µM.

Question: And the MBC [4]?
Answer: Its MBC is 1.56 µM (≈ 4.8 µg/mL).

Question: And the Activity (Klebsiella pneumoniae [5])?
Answer: The Activity was “Active”.

Question: And the MBC (Klebsiella pneumoniae [6])?
Answer: Its MBC is 1.56 µM.

Question: And the MIC (Klebsiella pneumoniae [7])?
Answer: Its MIC is 0.78 µM.

Question: And the MBC (Acinetobacter baumannii)?
Answer: Its MBC is 3.13 µM.

Question: And the MBC (Vibrio vulnificus [8])?
Answer: Its MBC is 12.5 µM (≈ 38.5 µg/mL).

Question: What about the MBC (Klebsiella pneumoniae [9]) of the same compound?
Answer: Its MBC is 0.78 µM.

Question: And the MBC (Salmonella typhimurium [10])?
Answer: The MBC was 6.25 µM.

Question: And the MIC (Vibrio vulnificus [11])?
Answer: The MIC was 12.5 µM.

Question: What about the MBC (Klebsiella pneumoniae [12]) of the same compound?
Answer: The MBC was 1.56 µM.

Question: What about the MIC (Klebsiella pneumoniae [13]) of the same compound?
Answer: The MIC was 0.78 µM.

Question: What about the MBC (Klebsiella pneumoniae [14]) of the same compound?
Answer: Its MBC is 1.56 µM.

Question: What about the MIC (Klebsiella pneumoniae [15]) of the same compound?
Answer: The MIC was 1.56 µM.

Question: And the MIC (Salmonella typhimurium [16])?
Answer: The MIC was 3.13 µM (≈ 9.64 µg/mL).

Question: What about the MBC (Vibrio vulnificus [17]) of the same compound?
Answer: Its MBC is 12.5 µM.

Question: What about the MBC (Klebsiella aerogenes [18]) of the same compound?
Answer: The MBC was 3.13 µM (≈ 9.64 µg/mL).

Question: What about the MIC (Escherichia coli [19]) of the same compound?
Answer: The MIC was 1.56 µM (≈ 4.8 µg/mL).

Question: And the MIC (Salmonella enterica [20])?
Answer: Its MIC is 0.78 µM.

Question: What about the MBC (Staphylococcus aureus [21]) of the same compound?
Answer: The MBC was over 100 µM.

Question: What about the Activity (Lipopolysaccharide (LPS)) of the same compound?
Answer: The Activity was “Active”.

Question: And the MIC (Rhizopus arrhizus)?
Answer: The MIC was 6.25 µM.

Question: And the MBC (Yersinia enterocolitica [22])?
Answer: Its MBC is 3.13 µM (≈ 9.64 µg/mL).

Question: And the MIC (Klebsiella pneumoniae [23])?
Answer: The MIC was 0.78 µM.

Question: And the MBC (Klebsiella oxytoca)?
Answer: Its MBC is 6.25 µM.

Question: And the MBC (Escherichia coli [24])?
Answer: The MBC was 1.56 µM (≈ 4.8 µg/mL).

Question: And the MIC (Klebsiella pneumoniae [25])?
Answer: Its MIC is 0.78 µM.

Question: And the MBC (Salmonella enterica [26])?
Answer: The MBC was 3.13 µM (≈ 9.64 µg/mL).

Question: And the “fractional inhibitory concentration index (FICI)” value (Klebsiella pneumoniae [27])?
Answer: Its value is 0.562.

Question: And the MBC (Klebsiella pneumoniae [28])?
Answer: The MBC was 1.56 µM.

Question: And the MIC (Staphylococcus aureus [29])?
Answer: Its MIC is 6.25 µM.

Question: What about the MIC (Klebsiella aerogenes [30]) of the same compound?
Answer: Its MIC is 3.13 µM (≈ 9.64 µg/mL).

Question: And the MIC (Yersinia enterocolitica [31])?
Answer: The MIC was 3.13 µM (≈ 9.64 µg/mL).

Question: What about the MBC (Klebsiella pneumoniae [32]) of the same compound?
Answer: The MBC was 0.78 µM.

Question: What about the MIC (Klebsiella pneumoniae [33]) of the same compound?
Answer: Its MIC is 50 µM.

Question: What about the MBC (Enterococcus faecium) of the same compound?
Answer: The MBC was 100 µM.

Question: What about the MBC (Klebsiella pneumoniae [34]) of the same compound?
Answer: The MBC was 6.25 µM (≈ 19.2 µg/mL).

Question: And the MIC (Klebsiella pneumoniae [35])?
Answer: Its MIC is 6.25 µM (≈ 19.2 µg/mL).

Question: And the MIC (Klebsiella pneumoniae [36])?
Answer: Its MIC is 0.78 µM (≈ 2.4 µg/mL).
